Test results: patent publication US20020026053A1, “Novel 3-(substituted) -2- indolinones compounds and use thereof as inhibitors of protein kinase activity” (priority 1997, published 2002)

Legend:
FLK-1 receptor = experiment: FLK-1 Assay (cellular/catalytic ELISA, VEGF-stimulated phosphotyrosine); format: cell-based; design: concentration or dose not given beside the values
Experimental: (§1) The cellular/catalytic assays described herein are performed in an ELISA format. The general procedure is as follows: a compound is introduced to cells expressing the test kinase, either naturally or recombinantly, for a selected period of time after which, if the test kinase is a receptor, a ligand known to activate the receptor is added. The cells are lysed and the lysate is transferred to the wells of an ELISA plate previously coated with a specific antibody recognizing the substrate of the enzymatic phosphorylation reaction. Non-substrate components of the cell lysate are washed away and the amount of phosphorylation on the substrate is detected with an antibody specifically recognizing phosphotyrosine compared with control cells that were not contacted with a test compound.
An ELISA assay is conducted to measure the kinase activity of the FLK-1 receptor and more specifically, the inhibition or activation of TK activity on the FLK-1 receptor. Specifically, the following assay can be conducted to measure kinase activity of the FLK-1 receptor in cells genetically engineered to express Flk-1.
a. Corning 96-well ELISA plates (Corning Catalog No. 25805-96);
b. Cappel goat anti-rabbit IgG (catalog no. 55641);
c. PBS (Gibco Catalog No. 450-1300EB);
d. TBSW Buffer (50 mM Tris (pH 7.2), 150 mM NaCl and 0.1% Tween-20);
e. Ethanolamine stock (10% ethanolamine (pH 7.0), stored at 4° C.);
f. HNTG buffer (20 mM HEPES buffer (pH 7.5), 150 mM NaCl, 0.2% Triton X-100, and 10% glycerol);
g. EDTA (0.5 M (pH 7.0) as a 100× stock);
h. Sodium orthovanadate (0.5 M as a 100× stock);
i. Sodium pyrophosphate (0.2 M as a 100× stock);
j. NUNC 96 well V bottom polypropylene plates (Applied Scientific Catalog No. AS-72092);
k. NIH3T3 C7#3 Cells (FLK-1 expressing cells);
l. DMEM with 1× high glucose L-Glutamine (catalog No. 11965-050);
n. L-glutamine, Gibco (catalog no. 25030-016);
o. VEGF, PeproTech, Inc. (catalog no. 100-20)(kept as 1 μg/100 μl stock in Milli-Q dH2O and stored at −20° C.;
p. Affinity purified anti-FLK-1 antiserum;
q. UB40 monoclonal antibody specific for phosphotyrosine (see, Fendley, et al., 1990, Cancer Research 50:1550-1558);
r. EIA grade Goat anti-mouse IgG-POD (BioRad catalog no. 172-1011);
s. 2,2-azino-bis(3-ethylbenz-thiazoline-6-sulfonic acid (ABTS) solution (100 mM citric acid (anhydrous), 250 mM Na2HPO4 (pH 4.0), 0.5 mg/ml ABTS (Sigma catalog no. A-1888)), solution should be stored in dark at 4° C. until ready for use;
t. H2O2 (30% solution) (Fisher catalog no. H325);
u. ABTS/ H2O2 (15 ml ABTS solution, 2 μl H2O2) prepared 5 minutes before use and left at room temperature;
v. 0.2 M HCl stock in H2O;
w. dimethylsulfoxide (100%) (Sigma Catalog No. D-8418); and
y. Trypsin-EDTA (Gibco BRL Catalog No. 25200-049).
1. Coat Corning 96-well ELISA plates with 1.0 μg per well Cappel Anti-rabbit IgG antibody in 0.1M Na2CO3 pH 9.6. Bring final volume to 150 μl per well. Coat plates overnight at 4° C. Plates can be kept up to two weeks when stored at 4° C.
2. Grow cells in Growth media (DMEM, supplemented with 2.0 mM L-Glutamine, 10% FBS) in suitable culture dishes until confluent at 37° C., 5% CO2.
3. Harvest cells by trypsinization and seed in Corning 25850 polystyrene 96-well round bottom cell plates, 25,000 cells/well in 200 μl of growth media.
4. Grow cells at least one day at 37° C., 5% CO2.
5. Wash cells with D-PBS 1×.
6. Add 200 μl/well of starvation media (DMEM, 2.0 mM 1-Glutamine, 0.1% FBS). Incubate overnight at 37° C., 5% CO2.
7. Dilute Compounds 1:20 in polypropylene 96 well plates using starvation media. Dilute dimethylsulfoxide 1:20 for use in control wells.
8. Remove starvation media from 96 well cell culture plates and add 162 μl of fresh starvation media to each well.
9. Add 18 μl of 1:20 diluted compound dilution (from step 7) to each well plus the 1:20 dimethylsulfoxide dilution to the control wells (+/− VEGF), for a final dilution of 1:200 after cell stimulation. Final dimethylsulfoxide is 0.5%. Incubate the plate at 37° C., 5% CO2 for two hours.
10. […]

PDGF-R = PDGF-R Assay (cellular ELISA, U1242 cells); format: cell-based; design: concentration or dose not given beside the values
Experimental: as §1
All cell culture media, glutamine, and fetal bovine serum can be purchased from Gibco Life Technologies (Grand Island, N.Y.) unless otherwise specified. All cells are grown in a humid atmosphere of 90-95% air and 5-10% CO2 at 37° C. All cell lines are routinely subcultured twice a week and are negative for mycoplasma as determined by the Mycotect method (Gibco).
For ELISA assays, cells (U1242, obtained from Joseph Schlessinger, NYU) are grown to 80-90% confluency in growth medium (MEM with 10% FBS, NEAA, 1 mM NaPyr and 2 mM GLN) and seeded in 96-well tissue culture plates in 0.5% serum at 25,000 to 30,000 cells per well. After overnight incubation in 0.5% serum-containing medium, cells are changed to serum-free medium and treated with test compound for 2 hr in a 5% CO2, 37° C. incubator. Cells are then stimulated with ligand for 5-10 minute followed by lysis with HNTG (20 mM Hepes, 150 mM NaCl, 10% glycerol, 5 mM EDTA, 5 mM Na3VO4, 0.2% Triton X-100, and 2 mM NaPyr). Cell lysates (0.5 mg/well in PBS) are transferred to ELISA plates previously coated with receptor-specific antibody and which had been blocked with 5% milk in TBST (50 mM Tris-HCl pH 7.2, 150 mM NaCl and 0.1% Triton X-100) at room temperature for 30 min. Lysates are incubated with shaking for 1 hour at room temperature. The plates are washed with TBST four times and then incubated with polyclonal anti-phosphotyrosine antibody at room temperature for 30 minutes. Excess anti-phosphotyrosine antibody is removed by rinsing the plate with TBST four times. Goat anti-rabbit IgG antibody is added to the ELISA plate for 30 min at room temperature followed by rinsing with TBST four more times. ABTS (100 mM citric acid, 250 mM Na2HPO4 and 0.5 mg/mL 2,2′-azino-bis (3-ethylbenzthiazoline-6-sulfonic acid)) plus H2O2 ([…] 30% H2O2 to 10 ml ABTS) is added to the ELISA plates to start color development. Absorbance at 410 nm with a reference wavelength of 630 nm is recorded about 15 to 30 min after ABTS addition.

| Structure (SMILES) | Flk Kinase % Inhibition (P.110) (FLK-1 receptor) [%] | PDGF Kinase % Inhibition (P.119) (PDGF-R) [%] |
| --- | --- | --- |
| CSc1ccc(C=C2C(=O)Nc3c(Br)cc(Br)c(C)c32)cc1 [10729/H04] | 1.1 | −5.6 |
| Cc1ccsc1C=C1C(=O)Nc2c(Br)cc(Br)c(C)c21 [10729/H05] | 22.4 | −27.6 |
| Cc1c(Br)cc(Br)c2c1C(=Cc1cccc(Oc3ccccc3)c1)C(=O)N2 [10729/H06] | 11.0 | −12.1 |
| Cc1c(Br)cc(Br)c2c1C(=Cc1ccccn1)C(=O)N2 [10729/H07] | 9.9 | −43.1 |
| Cc1c(Br)cc(Br)c2c1C(=Cc1cccnc1)C(=O)N2 [10729/H08] | 8.2 | −1.5 |
| Cc1c(Br)cc(Br)c2c1C(=Cc1ccncc1)C(=O)N2 [10729/H09] | −2.7 | 0.1 |
| Cc1c(Br)cc(Br)c2c1C(=Cc1ccc(N3CCCC3)cc1)C(=O)N2 [10729/H10] | 5.3 | −1.5 |
| Cc1c(Br)cc(Br)c2c1C(=CC1C=CCCC1)C(=O)N2 (stereo not shown) [10729/H11] | 8.9 | 5.0 |
| COc1ccc(C=C2C(=O)Nc3c(Br)cc(Br)c(C)c32)c(OC)c1OC [10730/H02] | 21.2 | 1.0 |
| COc1cc(OC)c(OC)cc1C=C1C(=O)Nc2c(Br)cc(Br)c(C)c21 [10730/H03] | 11.5 | −11.7 |
| COc1cc(C=C2C(=O)Nc3c(Br)cc(Br)c(C)c32)cc(OC)c1OC [10730/H04] | 12.1 | −1.2 |
| CC(=O)n1cc(C=C2C(=O)Nc3c(Br)cc(Br)c(C)c32)c2ccccc21 [10730/H05] | 11.7 | 22.1 |
| Cc1c(Br)cc(Br)c2c1C(=Cc1ccc(-c3ccccc3Cl)o1)C(=O)N2 [10730/H07] | 19.0 | 0.6 |
| Cc1c(Br)cc(Br)c2c1C(=Cc1cc3ccccc3nc1Cl)C(=O)N2 [10730/H08] | 9.2 | 6.3 |
| COC1CC(C=C2C(=O)Nc3c(Br)cc(Br)c(C)c32)C(OC)O1 (stereo not shown) [10730/H10] | 18.3 | 23.0 |
| Cc1cc(C=C2C(=O)Nc3c(Br)cc(Br)c(C)c32)oc1C [10730/H11] | 13.9 | 9.4 |

| Structure (SMILES) | Flk Kinase % Inhibition (P.110) (FLK-1 receptor) [%] | PDGF Kinase % Inhibition (P.119) (PDGF-R) [%] |
| --- | --- | --- |
| CCn1c2ccccc2c2cc(C=C3C(=O)Nc4c(Br)cc(Br)c(C)c43)ccc21 [10731/H02] | 19.7 | −18.7 |
| Cc1cc2occ(C=C3C(=O)Nc4c(Br)cc(Br)c(C)c43)c(=O)c2cc1C [10731/H03] | 20.0 | 1.8 |
| C=C(C)C1CC=C(C=C2C(=O)Nc3c(Br)cc(Br)c(C)c32)CC1 (stereo not shown) [10731/H04] | 16.4 | −15.8 |
| Cc1c(Br)cc(Br)c2c1C(=Cc1coc3ccc(C(C)C)cc3c1=O)C(=O)N2 [10731/H05] | 23.6 | −1.6 |
| Cc1ccc2occ(C=C3C(=O)Nc4c(Br)cc(Br)c(C)c43)c(=O)c2c1 [10731/H06] | 28.7 | −5.4 |
| Cc1c(Br)cc(Br)c2c1C(=Cc1coc3ccc([N+](=O)[O-])cc3c1=O)C(=O)N2 [10731/H07] | 74.5 | 36.5 |
| Cc1c(Br)cc(Br)c2c1C(=Cc1c[nH]c(=O)[nH]c1=O)C(=O)N2 [10731/H08] | 31.4 | −10.1 |
| COc1ccc2[nH]cc(C=C3C(=O)Nc4c(Br)cc(Br)c(C)c43)c2c1 [10731/H09] | 15.8 | −5.4 |
| Cc1c(Br)cc(Br)c2c1C(=C1C(=O)N(C)c3ccccc31)C(=O)N2 [10731/H10] | 25.9 | 40.3 |
| Cc1c(Br)cc(Br)c2c1C(=CC(c1cccs1)C(F)(F)F)C(=O)N2 (stereo not shown) [10732/H02] | 9.1 | 6.8 |
| COc1c(C(C)C)cc(C=C2C(=O)Nc3c(Br)cc(Br)c(C)c32)cc1C(C)C [10732/H03] | 8.4 | −1.8 |
| Cc1c(Br)cc(Br)c2c1C(=Cc1cc(C(C)C)c(Oc3ccccc3)c(C(C)C)c1)C(=O)N2 [10732/H04] | 4.9 | 14.4 |
| COc1ccc(C=C2C(=O)Nc3c(Br)cc(Br)c(C)c32)cc1C(C)(C)C [10732/H05] | 12.8 | −25.6 |
| Cc1c(Br)cc(Br)c2c1C(=Cc1ccc(OCc3ccccc3)c(C(C)(C)C)c1)C(=O)N2 [10732/H06] | 22.6 | −18.0 |
| COc1c(Br)cc(C=C2C(=O)Nc3c(Br)cc(Br)c(C)c32)cc1C(C)(C)C [10732/H07] | 9.7 | −22.0 |
| Cc1c(Br)cc(Br)c2c1C(=Cc1cc(Br)c(OCc3ccccc3)c(C(C)(C)C)c1)C(=O)N2 [10732/H08] | 12.6 | 7.8 |
